{
  "source": "patent US8039634B2",
  "about": "“Oxazole hydroxamic acid derivatives and use thereof” (SK Holdings Co., Ltd., priority 2005, dated 2011)",
  "key": {"[1]": {"tested_on": "HeLa", "test": "In vitro toxicity / growth inhibition (CellTiter-Glo), HeLa", "format": "cell-based", "conditions": "Homo sapiens, 48 hr", "description": "(§1) In order to determine in vitro toxicity of a compound in accordance with the present invention, 18 species of human cancer cell lines (HeLa, cervical cancer cell line; HCT116, SW480, SW620, RKO, colon cancer cell lines; H460, H1299, A549, lung cancer cell lines; MCF7, MDA-MB231, MDA-MB453, breast cancer cell lines; Jurkat, K562, THP1, Ramos, U937, blood cancer cell lines; PC3, DU145, prostate cancer cell lines) were used. Cell lines were cultured in RPMI 1640 culture medium containing penicillin/streptomycin (100 units/mL) and heat-inactivated 5% fetal bovine serum (FBS) under standard culture conditions ([…], 5% CO2, and 100% relative humidity). Thereafter, single cell suspension was obtained via trypsin treatment and pipetting. The suspension was diluted with the same medium such that a cell density is in a range of 8×10^3 to 1.5×10^4 cells/well, and was transferred to a 96-well microtiter plate. After culturing for 24 hours, cell cultures were treated with respective compounds of Examples at various concentrations. […] The above evaluation was carried out according to the methods given in a manufacture's manual. GI50 in Table 1 below refers to a concentration that compounds of Examples cause 50% growth inhibition of various cancer cells."}, "[2]": {"tested_on": "Raw cell", "test": "Inhibition of LPS-induced NO increases", "format": "cell-based, Mouse", "conditions": "5 μM compound", "description": "As one of the methods to confirm anti-inflammatory responses, inhibition of increases in nitric oxide (NO) due to lipopolysaccharide (LPS) was carried out. Mouse cell line (Raw cell) was cultured in RPMI 1640 culture medium containing penicillin/streptomycin (100 units/mL) and heat-inactivated 5% fetal bovine serum (FBS) under standard culture conditions ([…], 5% CO2, 37° C., and 100% relative humidity). Test compounds were dissolved in dimethylsulfoxide (DMSO) and were used as a final concentration of 1 to 40 μM. Cells were proliferated to a cell density of 5×10^3 to 2×10^4 cells on a 24-well plate and were treated with the respective compounds (equal amounts of 5 μM) 1 hour prior to treatment with LPS ([…]). The thus-treated cells were cultured for 18 hours, and thereafter the amounts of NO thus produced were measured using Griess Reagent. Measurement was confirmed using an absorption spectrophotometer at 540 nm. The value was expressed as percentage (%) relative to a control in which LPS alone was treated."}, "[3]": {"tested_on": "H460", "test": "In vitro toxicity / growth inhibition (CellTiter-Glo), H460", "format": "cell-based", "conditions": "Homo sapiens, NCI-H460; H460, 48 hr", "description": "as §1"}, "[4]": {"tested_on": "MCF7", "test": "In vitro toxicity / growth inhibition (CellTiter-Glo), MCF7", "format": "cell-based", "conditions": "Homo sapiens; MCF7, 48 hr", "description": "as §1"}, "[5]": {"test": "Solubility", "format": "physicochemical"}, "[6]": {"tested_on": "ICR-BG mice", "conditions": "mouse, in vivo", "description": "In order to confirm acute toxicity in vivo, a Rotarod Neurotoxicity test was carried out on ICR-BG mice (N=8). Animals were administered at a dose of 300 mg/kg. Animals received training at 7 rpm for 10 min twice, and 1 hour later the compound of Example 1 was administered intraperitoneally (ip) to 8 mice. Thereafter, for one minute at the intervals of every 30 min, 1 hour, 2 hours and 4 hours, times that animals fell from the rotarod and death of animal post-drug administration or affliction-related responses were continuously observed. When mice fell from the rotarod more than thrice in one minute, it was regarded as fall off."}, "[7]": {"tested_on": "Histone Deacetylase", "test": "Histone H3/H4 acetylation in HCT116 cells (Western blot)", "format": "cell-based, human", "conditions": "1 μM, HCT116, 0, 2 and 5 hours", "description": "Human color cancer cell line (HCT116) was cultured in RPMI 1640 culture medium containing penicillin/streptomycin (100 units/mL) and heat-inactivated 5% fetal bovine serum (FBS) under standard culture conditions ([…], 5% CO2, 37° C., and 100% relative humidity). Test compounds were dissolved in dimethylsulfoxide (DMSO) and were used as a final concentration of 1 μM. Cells (3×10^7) were cultured in the presence of the test compound (1 μM, Example 1) and absence thereof for 0, 2 and 5 hours, respectively. The cell suspension, which was obtained via trypsin treatment and pipetting, was centrifuged at 200×g for 10 min to form a pellet. The thus-formed pellet was washed twice with 10-fold volume of saline and re-suspended in a buffer [[…], pH 7.9, 1.5 mM MgCl2, 10 mM KCl, 0.5 mM DTT, 1.5 mM PMSF]. Thereafter, hydrochloric acid was added in a final concentration of 0.2 M to the resulting suspension which was then stored on ice for 30 min. The final suspension was centrifuged at 11,000 rpm and 4° C. for 10 min. […]\nDialyzed proteins were subjected to gel electrophoresis using 16% protein gel and were probed with acetylated histone H3 (Ac-H3) or H4 (Ac-H4) antibodies (Upstate Biotechnology Inc). […] In order to compare the equal amount of proteins, protein quantification and protein gel were run in parallel, followed by coumassie blue staining."}, "[8]": {"tested_on": "HDAC", "test": "Inhibition of HDAC activity (fluorometric, HeLa nuclear extract)", "format": "biochemical, human", "conditions": "30 min room temperature", "description": "In order to determine inhibitory activity of a compound in accordance with the present invention on HDAC, evaluation was carried out using an aminocoumarin derivative of ω-acetylated lysine as a substrate for an enzyme. As an enzyme source, a nuclear extract obtained from human cervical cancer cell line HeLa cells was used. The above evaluation was carried out with modification of a method based on the details described in Weegener et al. (2003) Analytical Biochemistry, 321, 203-208. That is, […], […] of nuclear extract and a compound of Example 1 at different concentrations were added and maintained at room temperature for 30 min. Trypsin (10 mg/ml) and Trichostatin A (final concentration: […]) were added to the resulting mixture which was reacted at the same temperature for 20 min, thereby terminating the reaction. The enzyme activity-inhibitory concentration of the compound added was determined using a fluorometer. As a control compound, suberoylanilide hydroxamic acid (SAHA) was used. IC50 in Table 1 below refers to a concentration of the compound that leads to a 50% decrease in activity of HDAC."}, "[9]": {"tested_on": "HCT116", "test": "In vitro toxicity / growth inhibition (CellTiter-Glo), HCT116", "format": "cell-based", "conditions": "Homo sapiens, HCT-116; HCT116, 48 hr", "description": "as §1"}},
  "note": "Where two headings read alike, the source gives them in different places.",
  "data": [
    {"smiles": "COc1ccc(-c2oc(CCCCCCC(=O)NO)nc2-c2ccccc2)cc1", "note": "[Example 1, 7-(5-(4-methoxyphenyl)-4-phenyloxazol-2-yl)heptanoic acid hydroxyamide]", "values": [
      {"measurement": "GI50", "setting": "[1]", "result": 1.4, "unit": "µM"},
      {"measurement": "NO", "setting": "[2]; LPS, 18 hours, Griess Reagent", "result": 63.7, "unit": "μM/L"},
      {"measurement": "activity at 5 µM", "setting": "[2]; Mus musculus, 18 h, relative to LPS alone control", "result": 57.9, "unit": "%"},
      {"measurement": "GI50", "setting": "[3]", "result": 3.63, "unit": "µM"},
      {"measurement": "GI50", "setting": "[4]", "result": 0.7, "unit": "µM"},
      {"measurement": "solubility", "setting": "[5]", "result": 200, "unit": "µg/mL"},
      {"measurement": "Mice fallen off rotarod", "setting": "[6]; 0.5 h", "result": "1/8(Fallen off)"},
      {"measurement": "Mice fallen off rotarod", "setting": "[6]; 1 h", "result": "1/8"},
      {"measurement": "Mice fallen off rotarod", "setting": "[6]; 2 h", "result": "0/8"},
      {"measurement": "Mice fallen off rotarod", "setting": "[6]; 4 h", "result": "0/8"},
      {"measurement": "Acetylation of histone H3 (Ac-H3) and H4 (Ac-H4)", "setting": "[7]", "result": "acetylated over time was confirmed via Western blot analysis"},
      {"measurement": "IC50", "setting": "[8]", "result": 0.00107, "unit": "µM"},
      {"measurement": "GI50", "setting": "[9]", "result": 3, "unit": "µM"}
    ]}
  ]
}
